The source of these data is US4865991A, “Methods for partitioning of organic flavor compounds” (priority 1987, dated 1989).

Where two headings read alike, the source gives them in different places.

A short description of data set [1]: HPLC determination of partition coefficients in acetonitrile phase systems. The protocol:
In these tests, known organic flavor volatile compounds were added to 2 ml aliquots of 50:50 acetonitrile:water, 22° C., in 4 ml HPLC vials, mixed thoroughly and capped with polytetrafluoroethylene septum caps. […] The samples were injected (20 uL) into a continuous HPLC apparatus. […] The HPLC apparatus was a Waters WISP model 710B sample injector, 6000A pump, and 481 UV detector set at 210 nm (Waters Associates, Milford, MA). A Radiomatic Flo-One Beta unit was used for peak integration (Radiomatic Instruments, Inc., Tampa FL). An Alltech adsorbosphere C18 column, 5 micron, 250 mm×4.6 mm was used (Alltech Associates, Deerfield, IL) to achieve component separation in accordance with conventional HPLC processing. The mobile phase had the following composition: 45% acetonitrile, 55% water, 0.2% KH2 PO4, pH 3.0. The flow rate was 1.0 ml/minute. The vials were then placed in a freezer (-20° C.) for one hour. 250 uL of the resulting organic and aqueous phases were then placed in a limited volume insert vial, the sample injected and peak integrations acquired. The partition coefficient, P, was calculated by dividing the organic phase by the aqueous phase integration values.
To determine the time period appropriate for complete partitioning, four sulfur volatiles and 1-methionine were treated as above, except that samples were taken at different times up to 60 minutes FIGS. 2a, 2b and 3).

Data set [2] can be described thus: Binary acetonitrile/water cold phase extraction of caffeine from cola beverage. Type of data set: physicochemical. The note with it: cola plus acetonitrile, -20° C. for 1 hour. The protocol:
[…]. The sample was shaken for 20 seconds and was chilled to -20° C. for 1 hour. 0.3 ml of the organic layer was then placed in an HPLC sampling vial. The HPLC system used was: a phenyl reversed phase column (Alltech Associates, Deerfield, Ill.) 250×4.6 mm, 5 micron. 25% acetonitrile, 75% water 0.2% w/v KH2 PO4, pH 3.0 mobile phase, 1.5 ml/min. flow rate 20 uL injection by the autosampler. UV detection at 210 nm.

Where [3] appears, read: Acetonitrile/water 1:1, 1 hr. at -20° C., organic phase divided by aqueous phase integration values.
Where [4] appears, read: Acetonitrile/water/chloroform 5:5:1, 22° C., organic phase divided by aqueous phase integration values.

Consider `OCCc1ccccc1` [2-phenyl ethanol], for which the “Partition Coefficient Ternary” value in data set [1] came to 2.3. The “Partition Coefficient Binary” value in data set [1] (60 min) is 3.3. On the same counts, the results for `O=C1O[C@H]([C@@H](O)CO)[C@@H](O)[C@@H]1O` [1-galactono-1,4-lactone] are 0.2 and 0.2. Regarding `S` [Hydrogen sulfide], the “Partition Coefficient Binary” value in data set [1] (setting [3]) is given as 4.6. Moreover, the “Partition Coefficient Ternary” value in data set [1] (setting [4]) is on record as 5.2. For `N[C@@H](Cc1ccccc1)C(=O)O` [1-phenylalanine] the same measures were 0.1 and 0.3.

Consider `CCCCCCCC(=O)O` [Caprylic acid], for which, in data set [1] (setting [3]), the “Partition Coefficient Binary” value was determined as 20.8. In data set [1] (setting [4]), the “Partition Coefficient Ternary” value was determined as 20.6. Take `CCCC(=O)OCC` [Ethyl Butyrate]: the “Partition Coefficient Ternary” value in data set [1] turned out to be 17.6. Also, the “Partition Coefficient Binary” value in data set [1] (60 min) amounted to 14.3. On to `CCCCC(=O)OCC` [Ethyl Valerate], for which the “Partition Coefficient Binary” value in data set [1] (setting [3]) stood at 25.9. Further, the “Partition Coefficient Ternary” value in data set [1] (setting [4]) is recorded as 25.6. Turning to `Cn1c(=O)c2c(ncn2C)n(C)c1=O` [Caffeine], in data set [2], the “extraction into the organic phase” value was “selectively extracted into the organic phase”. Consider `CSC` [Dimethyl sulfide], for which the “Partition Coefficient Ternary” value in data set [1] is on record as 6.6. Further, the “Partition Coefficient Binary” value in data set [1] (60 min) stood at 5.2. Turning to `CSCC[C@H](N)C(=O)O` [1-methionine], the “Partition Coefficient Binary” value in data set [1] (setting [3]) came to 0.03. For the same compound, the “Partition Coefficient Ternary” value in data set [1] (setting [4]) is 0.2.
